# B1: Brain-Derived Neurotrophic Factor (protein, UniProt P23560 19-247, looked up)
# Neurotrophic factor BDNF …: APMKEANIRGQGGLAYPGVRTHGTLESVNGPKAGSRGLTSLADTFEHVIEELLDEDQKVRPNEENNKDADLYTSRVMLSSQVPLEPPLLFLLEEYKNYLDAANMSMRVRRHSDPARRGELSVCDSISEWVTAADKKTAVDMSGGTVTVLEKVPVSKGQLKQYFYETKCNPMGYTKEGCRGIDKRHWNSQCRTTQSYVRALTMDSKKRIGWRFIRIDTSCVCTLTIKRGR
# notes: growth factor, 1 ng/ml, positive control for motoneuron survival
# Experiments:
# [1] = tested on: cortical neurons in culture; assay: In vitro neurotoxicity caused by hypoxia in cortical cells (LDH activity); type: cell-based, rat; details: 20 μM; 3 hours hypoxia, LDH after 24 hours
# Experimental: (§1) Cortical cells are extracted from Sprague-Dawley rat foetuses and cultured in MEM (minimum essential medium) containing 5% horse serum and 5% calf foetus serum.
# After morphological examination of the cells, the culture supernatants are collected and the lactate dehydrogenase (LDH) activity therein is measured.
# [2] = tested on: cortical neurons in culture; assay: In vitro neurotoxicity caused by glutamate in cortical cells (LDH activity); type: cell-based, rat; details: 20 μM; 1 mM glutamate 15 minutes
# Experimental: as §1
# Just before treatment with glutamate, the culture medium is replaced by 300 μl of saline solution buffered with HEPES. The cells are incubated for 15 minutes together with 1 mM glutamate. The culture media are then replaced by 200 μl of MEM without serum and the cells are incubated at 37° C. for 24 hours. After morphological examination of the cells, the culture supernatants are collected and the lactate dehydrogenase (LDH) activity therein is measured.
# [3] = tested on: motoneurons; details: Duong et al., Br. J. Pharmacol., 128, 1385-1392; cited from earlier work
# [4] = tested on: AMPA/kainate receptors; assay: Patch clamp: current induced by kainate in telencephalic cells in primary culture; type: cell-based, rat
# Experimental: Telencephalic cells of 16.5 day-old Wistar rat fetuses were cultured for 12 days. Patch clamp experiments were then conducted at ambient temperature in the following medium: 5 mM KCl, 140 mM NaCl, 10 mM Hepes, 2 mM MgCl2, 2 mM CaCl2 and 10 mM D-glucose (pH=7.3), and the micropipettes were filled with 140 mM KCl, 4 mM NaCl, 10 mM Hepes, 5 mM EGTA and 0.5 mM CaCl2 (pH=7.2).
# That effect is measured by the patch clamp technique.
# [5] = tested on: astrocytes in culture; assay: ATP levels associated with hypoxia in astrocytes maintained in culture; type: cell-based, rat; details: hypoxia 24 hours
# Experimental: Cultures of astrocytes are obtained using new-born rats according to the technique described by Booher J. and Sensenbrenner M. (Neurobiology 2, 97-105, […]). They are used three weeks after being placed in culture. […] The concentration of ATP is determined by luminescence and expressed in picomoles of ATP per mg of cellular proteins. The experiments are conducted in triplicate.
# [6] = tested on: mitochondrial genome; assay: In vivo expression of genes implicated in oxidative stress (RT-PCR, amygdala); details: rat, 15 mg/kg i.p. for 21 days
# Experimental: After sacrifice of the animals and removal of the brains, the total RNA of the amygdala region is extracted and then subjected to an RT-PCR test. In brief, reverse transcription is performed on the extracted RNA, the transcription products are then amplified by chain polymerisation (PCR) and then subjected to high-resolution polyacrylamide gel electrophoresis. The bands of interest are removed from the gel, re-amplified, sequenced and analysed.
# [7] = tested on: purified embryonic motoneurons; assay: Death of motoneurons deprived of growth factors (survival count); type: cell-based, rat; details: BDNF 1 ng/ml; 2.5 days of culture
# Experimental: Pregnant Sprague-Dawley rats are sacrificed on the 14th day of embryo life. The motoneurons of the embryos are purified according to the method published by C.
# The motoneurons are seeded a density of approximately 1000 cells per 16-mm well and are cultured in Neurobasal, supplemented by B27 and horse serum. […] The surviving motoneurons are counted directly.
# After 2.5 days of culture, motoneurons are counted in 2 areas of each of the 4 wells. Absolute value per area are presented (mean+/−s.e.m., n=8).
molecule,measurement,setting,value
C[C@]12N[C@H](Cc3ccccc31)c1ccccc12 [MK-801],protection against the effects of hypoxia (LDH activity),[1],86.3%
same,protection against toxicity caused by glutamate (LDH activity),[2],total protection
Cl.FC(F)(F)c1cccc(C2=CCN(CCc3ccc4ccccc4c3)CC2)c1 [SR57746A],activity on the survival of motoneurons in vitro,[3],active
CN1c2ccccc2C(NCCCCCCC(=O)O)c2ccc(Cl)cc2S1(=O)=O (stereo not drawn) [tianeptine],"effect on the current entering the cells, compound on its own (direct agonism)","[4]; 10 μM, without kainate",no effect
same,effect on the current induced by kainate,"[4]; 4, 10 and 25 μM, kainate 250 μM, FIG. 1",increases the current induced by kainate
same,percentage protection of astrocytes (ATP level),[5]; 10 μM (maximal),68%
same,protection of astrocytes (ATP level),"[5]; 0.1-1-10 μM, FIG. 4",protects astrocytes in culture in a dose-dependent manner
same,expression of mitochondrial genes in the amygdala,[6],"overexpression of the mitochondrial genes of NADH ubiquinone reductase (sub-units 2 and 5) and also of genes coding for 16S rRNA, leu-tRNA and val-tRNA"
B1,survival of motoneurons,[7],protect the motoneurons from cell death
